# Laboratory results published in publication PMC12867150, “A fungi-derived cyclic peptide enhances Th9-mediated antitumor immunity by targeting ZAP70 and SREBP1” (The Journal of Clinical Investigation, 2025).
# Several values for one entry are separate records, joined by “and”; a condition that tells them apart may be missing. Identical values can stand only once.
# Experiments:
# human Th9 cells = test: Intracellular ATP of human Th9 cells (Figure 8E); assay type: cell-based; conditions: result in words
# Protocol: For Th9 polarization, cultures were supplemented with IL-4 (10 ng/mL, PeproTech, catalog AF-200-04), TGF-β (1 ng/mL), and neutralizing anti–IFN-γ monoclonal antibody (10 μg/mL, clone B27, BioXcell, catalog BE0245). After 3 days of initial culture, cells were either collected for downstream assays or continued in extended culture with refreshed cytokines to maintain lineage commitment without antibodies. Th9 cells were collected at days 4, 5, and 6 for subsequent in vitro assays. For adoptive transfer studies, day 4–cultured Th9 cells were washed and prepared for intravenous injection.
# Intracellular adenosine triphosphate (ATP) levels were measured using a chemiluminescent ATP assay kit (Beyotime, catalog S0026) according to the manufacturer’s protocol. Briefly, cells were lysed and incubated with the luciferase-based detection reagent, and the resulting luminescent signal was detected using an Infinite M200 multimode microplate reader (TECAN). ATP concentrations were calculated based on a standard curve and normalized to cell number or protein content where applicable.
# endogenous CD8+ T cells = test: Cytokines and granzyme B/perforin in endogenous CD8+ T cells (Figure 3H, S4D-F); assay type: in vivo, mouse; parameters: TNF-α expression / IFN-γ expression / Expression of IFN-g of endogenous CD8⁺ T cells in tumor / Expression of TNF-α of endogenous CD8⁺ T cells in tumor: unit not given here; conditions: for Expression of IFN-g of endogenous CD8⁺ T cells in tumor: Supplemental Figure 4D; for Expression of TNF-α of endogenous CD8⁺ T cells in tumor: Supplemental Figure 4E; for Expression of GzmB+Perforin+ of endogenous CD8⁺ T cells in tumor: Supplemental Figure 4F
# Protocol: C57BL/6 mice were subcutaneously injected with 5 × 10^5 B16-OVA melanoma cells. Five days after tumor implantation, mice received an intravenous infusion of 2 × 10^6 in vitro–differentiated Th9 cells (cultured for 5 days), which were derived from OT-II CD45.1 donor mice, accompanied by 4 × 10^5 OVA peptide–pulsed DCs via the tail vein. To enhance T cell engraftment and facilitate lymphodepletion, a single intraperitoneal injection of cyclophosphamide (200 mg/kg, Sigma, catalog C0768) was administered 1 day prior to T cell transfer. Mice were euthanized at designated time points for the collection and analysis of spleens, tumor-draining lymph nodes, and tumor tissues.
# Details regarding staining panels (human and mouse), reagents (including clones and catalog numbers), acquisition settings, compensation/controls, and analysis procedures are provided in Supplemental Methods.
# BioLegend, Cat. No. 422301 or Mouse TruStain FcX™, BioLegend, Cat. No. 101319) for 10 minutes at 4°C. For surface marker detection, cells were stained with fluorochrome-conjugated monoclonal antibodies in 96-well V-bottom plates and incubated on ice for 30 minutes. After staining, cells were washed twice and resuspended in FACS buffer for analysis.
# Prior to intracellular cytokine staining, cells were restimulated for 4 hours with PMA (Absin, Cat. No. abs9107), ionomycin (Sigma-Aldrich, Cat. No. I0634), and brefeldin A (MedChemExpress, Cat. No. HY-16592). For intracellular cytokine staining, cells were first surface-stained as described above, then fixed and permeabilized using the BD Cytofix/Cytoperm™ kit (BD Biosciences, Cat. No. 554714) according to the manufacturer ’s protocol. Intracellular proteins were stained with directly conjugated antibodies targeting IL-9, IL-17a, IL-4, IFN-γ, TNF-α, FOXP3, p-ZAP70, Perforin, and […]
# Antibodies used for mouse samples included those against IL-9 (PE, clone RM9A4, Biolegend, Cat. No. 514104), IFN-γ (PE, clone XMG1.2, Biolegend, Cat. No.
# Cat. No. 103138), CD4 (APC/Cy7, clone E-AB-F1353UJ, Elabscience, Cat. No.
# AF18028), CD8α (PerCP/Cy5.5, clone E-AB-F1104UJ, Elabscience, Cat. No. […]
# clone E-AB-F1187UH, Elabscience, Cat. No. AF19854), TNF-α (BV421, clone MP6-XT22, Biolegend, Cat. No. 506328), FOXP3 (PE, clone FJK-16s, eBioscience, Cat. No.
# Perforin (APC, clone S16009A, Biolegend, Cat. No. 154303) and Granzyme B (APC, clone QA16A02, Biolegend, Cat. No. 372203). For human samples, antibodies against CD4 (PerCP/Cy5.5, clone RPA-T4, Biolegend, Cat. No. 300530; APC/Cy7, clone OKT4, Biolegend, Cat. No. 317418), CD19 (APC/Cy7, clone SJ25C1, Biolegend, Cat.
# No. 363009), IFN-γ (PE, clone 4S.B3, Biolegend, Cat. No. 502509), IL-9 (PE, clone
# [1] = endogenous CD8+, spleen, individual mice, n = 4
substance,measurement,setting,value
anteiso-C15 Leu7 surfactin [EpA],"ATP production, human Th9",human Th9 cells,increased
same,GzmB+ PRF1+ gate number,"endogenous CD8+ T cells; CD8+ T cells in tumors, representative flow plot, Figure S4F",30.0
same,GzmB and Perforin expression,endogenous CD8+ T cells; [1],76.8 and 76 and 70.2 and 67.3
same,IFN-γ expression,endogenous CD8+ T cells; [1],11.6 and 15.2 and 19.5 and 6.9
same,TNF-α expression,endogenous CD8+ T cells; [1],6.15 and 4.55 and 6.06 and 5
same,TNF-α expression of CD8+ T cells,"endogenous CD8+ T cells; spleen, result in words",remained unchanged
same,granzyme B+ perforin+ CD8+ T cells,"endogenous CD8+ T cells; spleen, result in words",pronounced increase
same,Expression of IFN-g of endogenous CD8⁺ T cells in tumor,endogenous CD8+ T cells; replicate 1,2162
same,Expression of IFN-g of endogenous CD8⁺ T cells in tumor,endogenous CD8+ T cells; replicate 2,2256
same,Expression of IFN-g of endogenous CD8⁺ T cells in tumor,endogenous CD8+ T cells; replicate 3,2381
same,Expression of IFN-g of endogenous CD8⁺ T cells in tumor,endogenous CD8+ T cells; replicate 4,2246
same,Expression of TNF-α of endogenous CD8⁺ T cells in tumor,endogenous CD8+ T cells; replicate 1,989
same,Expression of TNF-α of endogenous CD8⁺ T cells in tumor,endogenous CD8+ T cells; replicate 2,542
same,Expression of TNF-α of endogenous CD8⁺ T cells in tumor,endogenous CD8+ T cells; replicate 3,1324
same,Expression of TNF-α of endogenous CD8⁺ T cells in tumor,endogenous CD8+ T cells; replicate 4,780
same,Expression of GzmB+Perforin+ of endogenous CD8⁺ T cells in tumor,endogenous CD8+ T cells; replicate 1,28.2
same,Expression of GzmB+Perforin+ of endogenous CD8⁺ T cells in tumor,endogenous CD8+ T cells; replicate 2,30
same,Expression of GzmB+Perforin+ of endogenous CD8⁺ T cells in tumor,endogenous CD8+ T cells; replicate 3,29.9
same,Expression of GzmB+Perforin+ of endogenous CD8⁺ T cells in tumor,endogenous CD8+ T cells; replicate 4,58.8
same,TNF-α expression of CD8+ T cells,"endogenous CD8+ T cells; tumors, result in words",upregulated TNF-α expression
